According to article PMC11947619, “Molecular mechanism of Mad2 conformational conversion promoted by the Mad2‐interaction motif of Cdc20” (Protein Science : A Publication of the Protein Society, 2025):

Assays:
O‐Mad2^R133A = target: T1, O‐Mad2^R133A (Homo sapiens, UniProt Q13257, R133A); details: 100 μM O-Mad2^R133A, two-fold molar excess peptide, 25°C, 20 mM HEPES pH 7.0, 100 mM NaCl, 1 mM TCEP, 5% D2O; Trp75/Trp167 indole NH reporters; 12 min per spectrum; ref Fischer et al., [2022]; cited from earlier work
T1 construct: unable to collect equivalent data for full‐length O‐Mad2^R133A; His6-DoubleStrep-TEV (N); made in house
T1 sequence (Q13257 whole entry R133A): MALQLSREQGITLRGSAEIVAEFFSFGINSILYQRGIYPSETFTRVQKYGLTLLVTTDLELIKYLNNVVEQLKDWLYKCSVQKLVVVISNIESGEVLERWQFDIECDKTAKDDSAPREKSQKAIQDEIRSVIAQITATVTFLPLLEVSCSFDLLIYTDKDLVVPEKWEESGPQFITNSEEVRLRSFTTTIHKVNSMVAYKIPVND
Method: In contrast, conversion took ~24 h in the absence of Cdc20^MIM‐111‐138 peptide (Fischer et al., [2022]) (Figures 2c and ...

C‐Mad2 = experiment: NMR chemical shift perturbations of C-Mad2 by Cdc20 residues 138–152; type: binding, human; details: inferred from small CSPs, spectra of C-Mad2:Cdc20^MIM-123-152 vs C-Mad2:Cdc20^MIM-123-137, and lack of cryo-EM structural information
Method: FIGURE 3 Mad2 conversion rates with different Cdc20^MIM peptides. (a) Schematic of human Cdc20. Box1: Box1 motif; C1: C‐box motif; K1: KEN box motif; MIM: Mad2‐interacting motif, residues 123–137; WD40: WD40 domain, residues 182–480; IR: IR tail. (b) Mad2 conversion in the presence of different Cdc20^MIM peptides. Mad2 conversion was traced at 25°C and the changes in the first 30 min are shown. A black tick indicates where conversion is considered complete. NMR data for O‐Mad2^R133A with Cdc20^MIM‐111‐138 shown for comparison are from Fischer et al. ([2022]). (c) The Cdc20^MIM‐138‐152‐binding site was identified by comparing the spectra of C‐Mad2:Cdc20^MIM‐123‐137 with C‐Mad2:Cdc20^MIM‐123‐152 (boxed in b) and analyzing their CSPs (Figure S8e,f). The Cdc20^MIM‐138‐152‐binding site (blue) is mapped onto the structure of C‐Mad2:Cdc20 from the cryo‐EM structure of the APC/C:MCC complex (PDB 6TLJ) (Alfieri et al., [2016], Alfieri et al., [2020]). The O‐Mad2 structural model is superimposed onto the C‐Mad2 structure for comparison. Cdc20 residues 138–152 are in yellow and residues 126–138 are in green. The β7/β8 hairpin in O‐Mad2 (red) blocks both the binding sites for Cdc20 residues 126–138 and residues 138–152. (d) As in c except the β7/β8 hairpin in O‐Mad2 is removed to expose the Cdc20 binding sites. […] (f) Cdc20^MIM‐123‐152 was titrated into Mad2^∆β7/β8 and its binding was analyzed by NMR. […]

## EHQKAWALNLNGFDVEEAKILRLSGKPQ [Cdc20^MIM‐111‐138, Cdc20^MIM peptide spanning Cdc20 residues 111–138]
O‐Mad2^R133A
  time to complete Mad2 conversion: less than 30 min

## QNAPEGYQNRLKVLY [Cdc20^MIM‐138‐152, peptide of Cdc20 residues 138–152]
C‐Mad2
  association with C-Mad2, in words: only weakly associated with C‐Mad2
